From BindingDB's records for patent US12110299 (Yungjin Pharm., 2024)

Molecular target: Cyclin-dependent kinase 7 (Homo sapiens, UniProt P50613)
Test: CDK7 Kinase Activity Assay
Protocol: Representative compounds of the present invention were assayed in vitro for CDK7 kinase-inhibitory activities using ADP-Glo platform. In detail, CDK7 kinase-inhibitory activity was measured using recombinant purified human CDK7 kinase (ThermoFisher, PV3868) and ADP Glo kinase assays kit (Promega, V9102). CDK7 kinase was diluted with 1× kinase reaction buffer (40 mM Tris-C1, pH 7.5, 20 mM MgCl2, 0.1 mg/ml BSA and 50 [M DTT) and added to 96 well plates (final concentration of CDK7 per reaction: 50 ng). The compound was finally treated to be a 1% DMSO aqueous solution, and a substrate cocktail containing ATP (final concentration of 90 [M) and 0.2 μg/μl of MBP (Myelin basic protein) in a total of 25 μl of reaction mass was added to 96 well plates, thereby initiating an enzymatic reaction. After 2 hours of incubation (30° C.), equivalent volume (25 μl per reaction) of ADP Glo was added and incubated (30° C.) at room temperature for 60 minutes. […] The kinase activity was measured by chemiluminescence method according to ADP Glo Kanease Assay Kit instruction manual, and the CDK7-inhibitory activity of the compounds according to the present invention was calculated. The result analysis of each compound was performed using Microsoft Excel, and IC50 values were calculated by Prism software.

Sequence of Cyclin-dependent kinase 7 (P50613 whole entry): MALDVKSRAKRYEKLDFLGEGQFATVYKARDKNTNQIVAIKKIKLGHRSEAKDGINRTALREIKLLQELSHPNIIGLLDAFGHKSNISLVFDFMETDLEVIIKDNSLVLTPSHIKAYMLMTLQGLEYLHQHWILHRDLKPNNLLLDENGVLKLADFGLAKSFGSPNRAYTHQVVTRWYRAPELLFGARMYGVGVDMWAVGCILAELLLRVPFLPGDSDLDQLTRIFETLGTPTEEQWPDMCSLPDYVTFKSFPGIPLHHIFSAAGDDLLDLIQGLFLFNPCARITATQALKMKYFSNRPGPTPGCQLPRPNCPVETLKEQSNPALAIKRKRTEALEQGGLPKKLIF

**Q.** How did the IC50 turn out when C[C@H](C(=O)Nc1ncc(Cl)s1)c1cccc(-c2cnc(NC(=O)/C=C/CN3CC4CC3CO4)cn2)c1 (stereo partly specified) [US12110299, Example 94] was run?
**A.** Its IC50 is 14 nM.
